Patent EP1144423B1, “BIS-TERPYRIDINE-PLATINUM(II) COMPLEXES” (ISIS INNOVATION LIMITED, priority 1999, dated 2000)
Like-named read-outs stand apart in the source and are kept apart here.

Experiments:
[1] = test system: CH1 cell line; assay: in vitro cytotoxicity, sulforhodamine B growth inhibition assay; format: cell-based, human; conditions: 96 h exposure
Method: (§1) The IC50 values of the bis-2,2':6',2"-terpyridine Pt(II) complexes (1, Z=trans-CH=CH-, Y=H), (1, Z=trans-CH=CH-, Y=Cl) and (1, Z=trans-CH=CH-, Y=4-Br.C6H4), were reported in PCT/GB97/00218 (WO97/27202) and referred to as A14, I14 and Q14 respectively. They were evaluated for in vitro cytotoxicity against five human ovarian carcinoma cell lines which included two selected for resistance to cisplatin (Ch1cis^R and A2780cis^R) and one for resistance to doxorubicin (Ch1dox^R). The compounds were exposed to cells for 96 h and growth inhibition assessed using the sulforhodamine B protein staining assay.

[2] = test system: cisplatin resistant CH1 cell line (CH1cis^R); assay: as above; format: cell-based, human; conditions: 96 h exposure
Method: as §1

[3] = test system: doxirubicin resistant CH1 cell line; format: cell-based, human; conditions: doxirubicin resistant CH1 cell line versus CH1
Method: as §1

[4] = test system: cisplatin resistant CH1 cell line (CH1cis^R); conditions: 96 h exposure, value reported in WO97/27202; cited from earlier work
[5] = test system: cell line SKOV3; conditions: reported in WO 97/27202; cited from earlier work
[6] = test system: A2780 cisplatin resistant cell line (A2780cis^R); assay: in vitro cytotoxicity, sulforhodamine B growth inhibition assay; format: cell-based, human
Method: as §1

[7] = test system: cell line A2780; assay: as above; format: cell-based, human; conditions: 96 h exposure
Method: as §1

[8] = test system: cell line SKOV3; assay: as above; format: cell-based, human
Method: as §1

[9] = maximum tolerated dose, single intraperitoneal injection; format: in vivo; conditions: for loss of body weight: 25, 50 and 100 mg/kg i.p., body weight 2 weeks post-dosing; for deaths: single intraperitoneal injection at 25, 50 and 100 mg/kg; for signs of induced toxicity: single intraperitoneal injection
Method: The maximum tolerated dose was determined for A15(4NO3) and I15(4NO3).
Drugs were administered as a single intraperitoneal injection at 25, 50 and 100 mg/kg. Animals were observed daily for signs of induced toxicity and body weight determined 2 weeks post-dosing.

[10] = test system: poly[d(A-T)2]; conditions: second binding mode, circular dichroism; cited from earlier work
[11] = test system: DNA; conditions: intercalation into DNA, literature value [4]; cited from earlier work
[12] = test system: calf-thymus (ct)-DNA; conditions: literature values; cited from earlier work

For `O=[N+]([O-])[O-].O=[N+]([O-])[O-].O=[N+]([O-])[O-].O=[N+]([O-])[O-].O=[N+]([O-])[O-].O=[N+]([O-])[O-].[NH3+][Pt-2]([NH3+])([n+]1ccc(-c2cc[n+]([Pt-2]34[n+]5ccccc5-c5cc(Cl)cc([n+]53)-c3cccc[n+]34)cc2)cc1)[n+]1ccc(-c2cc[n+]([Pt-2]34[n+]5ccccc5-c5cc(Cl)cc([n+]53)-c3cccc[n+]34)cc2)cc1` [I20, trans-Diamminebis(4,4'-dipyridyl)platinum(II) bis[(4'-chloro-2,2':6',2"-terpyridine)platinum(II)] hexanitrate], the IC50 [1] was under 1000 nM, the IC50 [2] was under 1000 nM and the “resistance factors (RF)” value [3] was 0.8.
In the case of “4,4'-vinylenedipyridine bis[2,2':6',2"-terpyridine platinum (II)] [A14 (4BF4)]”, the IC50 [4] is listed as under 1000 nM and the “antitumour activity compared with cisplatin” value [5] is listed as “more effective than cisplatin”.
For `Clc1cc2[n+]3c(c1)-c1cccc[n+]1[Pt-2]3([n+]1ccc(C#CC#Cc3cc[n+]([Pt-2]45[n+]6ccccc6-c6cc(Cl)cc([n+]64)-c4cccc[n+]45)cc3)cc1)[n+]1ccccc1-2.O=[N+]([O-])[O-].O=[N+]([O-])[O-].O=[N+]([O-])[O-].O=[N+]([O-])[O-]` [I15, 1,4-Bis(4-pyridyl)butadiyne bis[(4'-chloro-2,2':6'2"-terpyridine)platinum(II)] tetranitrate], the “times more effective than cisplatin” value ([6]; A2780cis^R cell line) was 13 times, the “resistance factors (RF)” value ([6]; A2780cis^R versus A2780) was 1.1 and the IC50 [7] was under 1000 nM. For the same molecule, the “antitumour activity compared with cisplatin” value [8] was “more effective than cisplatin”, the “loss of body weight” value [9] was “no loss of body weight” and the deaths [9] was “no deaths”. For the same molecule, the “signs of induced toxicity” value ([9]; 50 mg/kg) was “not at 50 mg/kg” and the “signs of induced toxicity” value ([9]; 100 mg/kg) was “some indication of toxicity (mild ataxia/twitching)”.
In the case of `Cc1cc[n+]([Pt-2]23[n+]4ccccc4-c4cccc([n+]42)-c2cccc[n+]23)cc1.F[B-](F)(F)F.F[B-](F)(F)F` [4-Picoline-2,2':6',2"-terpyridine-platinum(II) bis-tetrafluoroborate], the equilibrium binding constant [10] is listed as “about 1 x10^6 M^-1”.
In the case of `F[B-](F)(F)F.[OH][Pt-2]12[n+]3ccccc3-c3cccc([n+]31)-c1cccc[n+]12` [hydroxy-platinum complex], the binding constant [11] is given as “approximately 7 x 10^4 M^-1”.
For `C(C#Cc1cc[n+]([Pt-2]23[n+]4ccccc4-c4cccc([n+]42)-c2cccc[n+]23)cc1)#Cc1cc[n+]([Pt-2]23[n+]4ccccc4-c4cccc([n+]42)-c2cccc[n+]23)cc1.O=[N+]([O-])[O-].O=[N+]([O-])[O-].O=[N+]([O-])[O-].O=[N+]([O-])[O-]` [A15, 1,4-Bis(4-pyridyl)butadiyne bis[(2,2':6',2"-terpyridine)platinum(II)] tetranitrate], the IC50 [1] was under 1000 nM, the IC50 [2] was under 1000 nM and the “resistance factors (RF)” value [3] was 0.6. For the same molecule, the “loss of body weight” value [9] was “no loss of body weight”, the deaths [9] was “no deaths” and the “signs of induced toxicity” value ([9]; 100 mg/kg) was “no sign of toxicity or body weight loss”.
For `[Cl-].[Cl-].[Pt+2].c1ccc(-c2cccc(-c3ccccn3)n2)nc1` [chloroplatinum complex], the “binding association constants with ct-DNA” value [12] is listed as “essentially the same binding constant”.
For “hydroxyethanethiolate-2,2':6',2"-terpyridine-platinum(II) [hydroxy-ethanethiolate complex]”, the “binding association constants with ct-DNA” value [12] is listed as 83000 M⁻¹.
For `Clc1cc2[n+]3c(c1)-c1cccc[n+]1[Pt-2]3([n+]1ccc(-c3cc[n+]([Pt-2]45[n+]6ccccc6-c6cc(Cl)cc([n+]64)-c4cccc[n+]45)cc3)cc1)[n+]1ccccc1-2.O=[N+]([O-])[O-].O=[N+]([O-])[O-].O=[N+]([O-])[O-].O=[N+]([O-])[O-]` [I18, 4,4'-Dipyridine bis[(4'-chloro-2,2':6',2"-terpyridine)platinum(II)] tetranitrate], the IC50 [1] was under 1000 nM, the “antitumour activity compared with cisplatin” value [8] was “more effective than cisplatin” and the IC50 [2] was under 1000 nM.
